{"source": "patent US12414927B2", "about": "“CXCR5 antagonists and methods of treating diseases or disorders using same” (YALE UNIVERSITY, priority 2020, dated 2025)", "key": {"human CXCR5 [1]": {"biological_target": "T1, human CXCR5 (Homo sapiens, UniProt P32302)", "T1 construct": "expressed in transfected cells; host or cells: HEK-293 (division-arrested, stably expressing)", "T1 sequence (P32302 1-372)": "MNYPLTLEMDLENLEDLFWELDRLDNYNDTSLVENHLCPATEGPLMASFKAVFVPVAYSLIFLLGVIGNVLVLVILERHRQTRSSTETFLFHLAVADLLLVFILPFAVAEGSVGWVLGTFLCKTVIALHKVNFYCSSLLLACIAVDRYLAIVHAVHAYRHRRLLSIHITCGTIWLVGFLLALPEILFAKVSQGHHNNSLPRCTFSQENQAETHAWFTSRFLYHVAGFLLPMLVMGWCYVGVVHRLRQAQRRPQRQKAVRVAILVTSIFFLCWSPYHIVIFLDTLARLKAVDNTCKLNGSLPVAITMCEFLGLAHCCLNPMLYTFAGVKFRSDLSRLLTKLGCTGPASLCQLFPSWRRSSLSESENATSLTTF", "assay": "Calcium assay: inhibition of Gaq-mediated Ca2+ flux at an EC80 of CXCL13 agonist", "assay_type": "cell-based", "conditions": "HEK-293 cells transfected with human CXCR5, in the presence or absence of BSA", "method": "FIGS. 1A-1B illustrate inhibition of Gaq-mediated Ca^2+ flux for certain compounds of the disclosure. The assays use HEK cells stably expressing functional human CXCR5 and measure inhibition of Gaq-mediated Ca^2+ flux at an EC80 of CXCL13 agonist. Assays were performed in HBSS buffer (FIG. 1A) and HBSS buffer+1% BSA (FIG. 1B); the compounds were active in the presence of the bovine serum albumin, without significant change in an IC50 value. Compound 1 is 2-(3-methyl-2-(2-methylprop-1-en-1-yl)benzamido)-2,3-dihydro-1H-indene-2-carboxylic acid; Compound 2 is 2-(2-isobutyl-3-methylbenzamido)-2,3-dihydro-1H-indene-2-carboxylic acid.\n(§1) These assays were performed in division-arrested HEK-293 cells transfected with human CXCR5. The CXCL13 ligand was used as agonist.\nThe calcium assay allows homogeneous measurement of intracellular calcium changes caused by activation of G-protein coupled receptors or calcium channels.\nFor adherent cells, plate 50K to 70K cells/well for a 96 well plate and 12K to 20K cells/well for a 384 well plate the day before the experiment. Add 100 μl/well of cell suspension to 96-well plates or 25 μl/well to 384-well plates, allow cells to attach and grow overnight for 16 to 24 hours in cell culture incubators. Prior to dye loading the plate, examine the cells for confluency and overall health.\n1. […]"}, "human CXCR5 [2]": {"biological_target": "T1, human CXCR5", "assay": "Cyclic AMP assay: inhibition of Gai-mediated decrease of cAMP at an EC80 of CXCL13", "assay_type": "cell-based", "conditions": "HEK-293 cells transfected with human CXCR5, in the presence or absence of BSA", "method": "FIGS. 2A-2B illustrate inhibition of Gat-mediated decrease of cAMP for certain compounds of the disclosure. The assays use HEK cells stably expressing functional human CXCR5 and measure inhibition of Gat-mediated decrease of cAMP at an EC80 of CXCL13. Assays were performed in HBSS buffer (FIG. 2A) and HBSS buffer+1% BSA (FIG. 2B); the compounds were active in the presence of the bovine serum albumin, without significant change in an IC50 value.\nas §1"}, "murine CXCR5": {"biological_target": "T2, murine CXCR5 (Mus musculus, UniProt Q04683)", "T2 sequence (Q04683 1-374)": "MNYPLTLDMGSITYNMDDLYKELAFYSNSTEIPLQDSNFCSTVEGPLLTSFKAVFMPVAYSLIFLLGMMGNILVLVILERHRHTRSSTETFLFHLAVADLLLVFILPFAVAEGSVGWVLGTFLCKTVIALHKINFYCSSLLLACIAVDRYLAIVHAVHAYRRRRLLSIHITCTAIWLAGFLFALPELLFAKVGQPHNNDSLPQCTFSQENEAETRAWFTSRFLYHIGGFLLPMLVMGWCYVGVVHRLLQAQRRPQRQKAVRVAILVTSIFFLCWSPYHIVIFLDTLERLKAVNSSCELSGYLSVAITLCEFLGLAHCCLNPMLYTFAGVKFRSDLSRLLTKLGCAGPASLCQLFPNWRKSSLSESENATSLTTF", "assay": "Binding to murine CXCR5"}, "[3]": {"assay": "In vivo PK, oral doses of 10, 30 and 60 mg/kg", "parameters": "species or system female CB.17 SCID mice", "conditions": "oral 10, 30 and 60 mg/kg", "method": "FIG. 5 illustrates in vivo PK results for multiple doses of Compound 2 administered orally. 9 female CB.17 SCID mice per group were used except for vehicle control group, where 15 mice were tested. Three drug doses were used (10, 30 and 60 mg/kg), with dosing volume of 10 mL/kg (0.200 mL/20 g mouse) for each dose. Volume was adjusted for body weight, and analysis was run at 6 different time points.\n(§2) For suitability of murine AITL patient derived xenografts (PDX) studies, pharmacokinetics (PK) of Compound 2 were determined by IV, oral, and IP administration (FIG. 4). These parameters provided confidence for oral administration studies at different doses and are suitable for further PK studies at 24-hour measurement at different oral doses. The study allowed one to determine the dose that results in a blood level of ˜IC80."}, "[4]": {"assay": "In vivo PK, single dose by IV, PO or IP route", "method": "Three groups of 30 mice (male, CD-1) were dosed via one route per group (PO, IP, or IV). Single dose level was used per route of administration. Dosing level (mg/kg): IV (1 mg/kg); PO (10 mg/kg); and IP (10 mg/kg). […] Blood collections were terminal for each mouse, so triplicate data was obtained for each time point."}, "[5]": {"assay": "Preliminary toxicity/tolerability study, 40 mg/kg BID by oral gavage", "assay_type": "in vivo, NSG mice", "method": "FIG. 8 illustrates absolute body weight for mice treated with Compound 2, 40 mg/kg BID. 5 NSG mice (highly immunodeficient, same strain as in the in vivo efficacy study) were tested. Compound 2 was administered via oral gavage, BID (twice a day) for 14 days. […] Body weight was monitored daily. Mean body weight loss was <4%, confirming tolerability.\nIt was decided that a dose of 40 mg/kg would be used in the AITL PDX studies (design outlined in FIG. 6). Prior to the study, preliminary 1-week toxicity studies were performed on the NSG immunocompromised mice (NOD/SCID, IL-2R knockout) that would be used on the AITL PDX study (FIG. 8)."}, "[6]": {"system": "patient-derived AITL tissue", "assay": "In vivo efficacy in AITL patient-derived xenograft (human CD45+ cells)", "method": "FIGS. 9A-9B illustrate CD45 levels in bone marrow (FIG. 9A) and peripheral blood (FIG. 9B) of mice treated with Compound 2 or vehicle. […] (NOD/SCID, IL-2R knockout) mice (8 animals per group) were implanted with patient-derived AITL tissue. Compound 2 binds to human but not to murine CXCR5. Animals were treated with vehicle or 40 mg/kg Compound 2 via oral gavage 2×/day. t test comparing all mice at the time of sacrifice was performed to analyze the data. Error bars—SEM.\nFor in vivo efficacy study, mice were implanted with AITL PDX and engraftment levels were quantified in each animal as circulating human CD45+ cells levels in blood. Dosing began when average engraftment reached 0.13%, and the cohort was treated for 42 days. The mice were monitored weekly for weight loss and daily for any clinical mortality observation. Only 1 treated mouse lost weight (14%) during the first week but gained it back and was otherwise stable similar to the other mice. Blood was drawn at 0, 14, and 28 days after the dosing started, and before euthanasia to measure tumor burden. […] When mice were sacrificed, various organs were removed and stored at −80° C. At the end of the study (42 days of dosing), 3 and 5 mice treated with vehicle or Compound 2, respectively, were still alive. […] The absolute percentage in the blood was 44.5% and 57.6% for treated and untreated mice, respectively.\nPDX was implanted into immunocompromised NSG mice.\nStarting at around 21 days after implantation, animals are examined for engraftment every 1-2 weeks. Engraftment is determined by measuring human CD45+ cells in blood (flow cytometry).\nAfter engraftment is observed, animals are dosed by oral gavage every 10-14 hours with vehicle (untreated groups) or with compound YU241279 at 40 mg/kg (treated groups).\nAnimals are evaluated for general health daily and weighed twice per week; circulating human CD45+ cells are measured on days 14 and 28 after treatment initiation to evaluate tumor progression. Based on day 28 analysis, treatment may be extended (the decision to extend the dosing is based on the health status of the vehicle group: CD45 (<50%), lack of morbidity by day 28); Readouts at conclusion of the study include spleen weight, survival, and flow cytometry assessment for human CD45+ cells in blood and bone marrow."}, "Raji cell line": {"system": "Raji cell line", "assay": "Proliferation of CXCR5-expressing Burkitt's B-cell lymphoma cell line over 7 days", "assay_type": "cell-based", "conditions": "7-day period, media containing 5% FBS, various doses, DMSO negative control", "from_the_text": "FIG. 3 illustrates proliferation of the CXCR5-expressing Burkitt's B-cell lymphoma cell line (Raji cell line) over a 7-day period in the media containing 5% FBS in the presence of various doses of Compound 2 or Compound 3 (1-(2-isobutyl-3-methylbenzamido)-2,3-dihydro-1H-indene-1-carboxylic acid). […] DMSO is shown as a negative control.\nAt this time a Tfh or AITL cell line has not been developed. Thus, a B-cell lymphoma cell line (Raji) was used to determine whether the contemplated compounds can inhibit proliferation. In this experiment, Compound 2 was compared to analogue Compound 3 over a 7-day period (FIG. 3)."}, "[7]": {"assay": "10-day oral dosing PK/tolerability study, 30 mg/kg every 12 hours", "assay_type": "in vivo, female CB.17 SCID mice", "method": "FIG. 6 illustrates a dosing scheme for oral administration of Compound 2 over 10 days. Female CB.17 SCID mice were dosed according to the table shown: Groups 1-2 were treated with the drug and Group 3 animals were treated with vehicle control. Mice were orally dosed at 30 mg/kg every 12 hours for 10 days. Group 2 (18 animals total, alternating animals) were used for PK blood analysis, and Group 1 (5 animals total) were sacrificed at end point for gross necropsy.\nFIGS. 7A-7B illustrate in vivo PK results for multiple doses of Compound 2 (30 mg/kg) administered orally over 10 days. […] No change in slope of decrease indicated no change in rate of metabolism.\nas §2"}, "human CXCR5 [8]": {"biological_target": "T1, human CXCR5", "assay": "Binding to human CXCR5"}, "[9]": {"conditions": "40 mg/kg oral gavage BID for 14 days, 5 NSG mice"}, "[10]": {"conditions": "40 mg/ml (so in the source), NSG mice"}, "[11]": {"conditions": "at death, 40 mg/kg oral, treated mice"}}, "note": "“Also recorded” adds a separate entry of the source.", "data": [{"smiles": "CC(C)=Cc1c(C)cccc1C(=O)NC1(C(=O)O)Cc2ccccc2C1", "note": "[Compound 1, 2-(3-methyl-2-(2-methylprop-1-en-1-yl)benzamido)-2,3-dihydro-1H-indene-2-carboxylic acid]", "values": [{"measurement": "activity in calcium assay (inhibition of Gaq-mediated Ca2+ flux)", "setting": "human CXCR5 [1]", "value": "sub-micromolar"}, {"measurement": "activity in cyclic AMP assay (inhibition of decrease of cAMP)", "setting": "human CXCR5 [2]", "value": "sub-micromolar"}]}, {"smiles": "Cc1cccc(C(=O)NC2(C(=O)O)Cc3ccccc3C2)c1CC(C)C", "note": "[Compound 2, 2-(2-isobutyl-3-methylbenzamido)-2,3-dihydro-1H-indene-2-carboxylic acid]", "values": [{"measurement": "binding to murine CXCR5", "setting": "murine CXCR5", "value": "not"}, {"measurement": "compound blood level versus compound amount administered", "setting": "[3]", "value": "clear increase in compound blood level versus compound amount administered"}, {"measurement": "activity in calcium assay (inhibition of Gaq-mediated Ca2+ flux)", "setting": "human CXCR5 [1]", "value": "sub-micromolar"}, {"measurement": "clinical observations", "setting": "[4]; IV arm subsequently dosed at 0.2 mg/mL delivered at 5 mL/kg", "value": "without any adverse observations"}, {"measurement": "clinical observations", "setting": "[4]; original IV group, single dose", "value": "labored breathing, decreased activity, and death"}, {"measurement": "bioavailability", "setting": "[4]; pharmacokinetic study in mice", "value": "confirmed bioavailability"}, {"measurement": "mean body weight loss", "setting": "[5]; [9]", "value": "< 4", "unit": "%"}, {"measurement": "morbidity", "setting": "[5]; [9]", "value": "No morbidity was observed"}, {"measurement": "body weight gain compared with vehicle", "setting": "[5]; [10]", "value": "did not gain weight as fast as the mice treated with vehicle"}, {"measurement": "other abnormalities", "setting": "[5]; [10]", "value": "no other abnormalities observed"}, {"measurement": "tumor loads in peripheral blood and bone marrow compared to vehicle control", "setting": "[6]; 40 mg/kg oral gavage 2x/day, at time of sacrifice", "value": "Significantly reduced tumor loads"}, {"measurement": "mice still alive at the end of the study", "setting": "[6]; 42 days of dosing, 8 animals per group", "value": 5}, {"measurement": "absolute percentage of human CD45+ in the blood", "setting": "[6]; [11]", "value": 44.5, "unit": "%"}, {"measurement": "absolute percentage of human CD45+ in the bone marrow", "setting": "[6]; [11]", "value": 10.6, "unit": "%"}, {"measurement": "weight loss of the only treated mouse that lost weight", "setting": "[6]; first week of dosing, 1 treated mouse, regained afterwards", "value": 14, "unit": "%"}, {"measurement": "activity in cyclic AMP assay (inhibition of decrease of cAMP)", "setting": "human CXCR5 [2]", "value": "sub-micromolar"}, {"measurement": "proliferation of Raji cells", "setting": "Raji cell line", "value": "dose-dependent decrease in proliferation; also recorded: clearly inhibited proliferation"}, {"measurement": "tolerability", "setting": "[7]; 10-day study at 30 mg/kg oral", "value": "demonstrated tolerability"}, {"measurement": "health of animals", "setting": "[7]; oral 30 mg/kg every 12 hours for 10 days, during dosing and for 2 weeks following", "value": "good health"}, {"measurement": "change of compound metabolism over dosing period", "setting": "[7]; oral 30 mg/kg every 12 hours, 10 days, first two doses versus 20th dose, 30 mg/kg", "value": "compound metabolism was unchanged; also recorded: no change metabolism"}, {"measurement": "blood levels relative to IC50 between doses", "setting": "[7]; oral 30 mg/kg, 12 hours between doses", "value": "remained above IC50 for full 12 hours"}, {"measurement": "binding to human CXCR5", "setting": "human CXCR5 [8]", "value": "binds"}]}, {"smiles": "Cc1cccc(C(=O)NC2(C(=O)O)CCc3ccccc32)c1CC(C)C", "note": "(stereo not shown) [Compound 3, 1-(2-isobutyl-3-methylbenzamido)-2,3-dihydro-1H-indene-1-carboxylic acid]", "values": [{"measurement": "proliferation of Raji cells", "setting": "Raji cell line", "value": "less potent than Compound 2"}]}]}
